# Assay results taken from patent US20240262806A1, “INHIBITORS OF NLRP3” (PTC THERAPEUTICS, INC., priority 2021, published 2024).
# System: NLRP3 inflammasome
# Experiment: IL-1β Secretion Assay (NLRP3-dependent IL-1β secretion in PMA-differentiated THP-1 cells, nigericin activation, HTRF)
# Format: cell-based
# Conditions: Homo sapiens, THP-1, THP-1 cells, 100 ng/mL PMA 24 h, compound 20 h, 2.5 μM Nigericin 3 h; read-out: IC50 IL-1β Inhibition
# Protocol: Cells were washed 1× with 100 ul PBS and replaced with fresh RPMI+5% FBS. Compounds were serial diluted in DMSO with 3 fold dilution for a total of 7 concentrations.
# Compounds, once produced and prepared according to the present invention, can be assessed in variety of assays to characterize their activities. […] IC50 values of IL1β inhibition were calculated from the plot of percentage of inhibition versus the inhibitor concentration by a logistics fit. TABLE I depict examples of compounds according to generic Formulae I. Data which is <1 nM is listed as *****; data 1-10 nM is listed as ****; data 10-100 nM is listed as ***, data 100-300 nM is listed as **, data >300 nM is listed as *.
row,Compound,IC50
1,CN1CCC[C@@H](Nc2nnc(-c3ccc(C(F)(F)F)cc3O)c3sccc23)C1 [Compound I-4],1 to 10 nM
2,Oc1cc(C(F)(F)F)ccc1-c1nnc(NC2CCNC2)c2ccccc12 (stereo not shown) [Compound I-6],10 to 100 nM
3,CN1CCC[C@@H](Nc2nnc(-c3ccc(C(F)(F)F)cc3O)c3ccncc23)C1 [Compound I-7],< 1 nM
4,Cc1cccc2c(N[C@@H]3CCCN(C)C3)nnc(-c3ccc(C(F)(F)F)cc3O)c12 [Compound I-8],1 to 10 nM
5,CN1CCC[C@@H](Nc2nnc(-c3ccc(C(F)(F)F)cc3O)c3cc(F)ccc23)C1 [Compound I-9],1 to 10 nM
6,"CN1CCC[C@@H](Nc2nnc(-c3ccc(-n4nccn4)cc3O)c3ccccc23)C1 [Compound I-10, (R)-2-(4-((1-methylpiperidin-3-yl)amino)phthalazin-1-yl)-5-(2H-1,2,3-triazol-2-yl)phenol]",1 to 10 nM
7,"Oc1cc(C(F)(F)F)ccc1-c1nnc(N[C@@H]2CCCNC2)c2c1CCCC2 [Compound I-11, (R)-2-(4-(Piperidin-3-ylamino)-5,6,7,8-tetrahydrophthalazin-1-yl)-5-(trifluoromethyl)phenol]",10 to 100 nM
8,CN1CCC[C@@H](Nc2nnc(-c3ccc(Cl)cc3O)c3ccccc23)C1 [Compound I-13],< 1 nM
9,CN1CCC[C@@H](Nc2nnc(-c3c(O)cccc3F)c3ccccc23)C1 [Compound I-14],1 to 10 nM
10,"CN1CCC[C@@H](Nc2nnc(-c3ccc(O)cc3O)c3ccccc23)C1 [Compound I-15, (R)-4-(4-((1-methylpiperidin-3-yl)amino)phthalazin-1-yl)benzene-1,3-diol]",100 to 300 nM
11,CN1CCC[C@@H](Nc2nnc(-c3ccc(F)cc3O)c3ccccc23)C1 [Compound I-16],1 to 10 nM
12,Cc1ccc(O)c(-c2nnc(N[C@@H]3CCCN(C)C3)c3ccccc23)c1 [Compound I-17],100 to 300 nM
13,Cc1cc(O)c(-c2nnc(N[C@@H]3CCCN(C)C3)c3ccccc23)cc1F [Compound I-18],1 to 10 nM
14,CCN1CCC[C@@H](Nc2nnc(-c3ccc(C(F)(F)F)cc3O)c3c2CCCC3)C1 [Compound I-19],< 1 nM
15,"Oc1cc(C(F)(F)F)ccc1-c1nnc(N[C@@H]2CCCNC2)c2ccccc12 [Compound I-20, 2-[4-[[(3R)-3-Piperidyl]amino]phthalazin-1-yl]-5-(trifluoromethyl)phenol]",< 1 nM
16,Oc1cc(C(F)(F)F)ccc1-c1nnc(O[C@@H]2CCCNC2)c2ccccc12 [Compound I-21],10 to 100 nM
17,CN1CCC[C@H](Oc2nnc(-c3ccc(C(F)(F)F)cc3O)c3ccccc23)C1 [Compound I-22],100 to 300 nM
18,CC1CCCc2c(N[C@@H]3CCCNC3)nnc(-c3ccc(C(F)(F)F)cc3O)c21 (stereo partly shown) [Compound I-23],10 to 100 nM
19,CN1CCC[C@@H](Nc2nnc(-c3ccc(C#N)cc3O)c3ccccc23)C1 [Compound I-24],< 1 nM
20,Cc1ccc(-c2nnc(N[C@@H]3CCCN(C)C3)c3ccccc23)c(O)c1 [Compound I-25],< 1 nM
21,CN1CC[C@@H](Nc2nnc(-c3ccc(C(F)(F)F)cc3O)c3c2CCCC3)C1 [Compound I-26],10 to 100 nM
22,Cc1cccc(-c2nnc(N[C@@H]3CCCN(C)C3)c3ccccc23)c1O [Compound I-27],< 1 nM

row,Compound,IC50
1,CN1CCC[C@@H](Nc2nnc(-c3cccc(F)c3O)c3ccccc23)C1 [Compound I-28],10 to 100 nM
2,CN1CCC[C@@H](Oc2nnc(-c3ccc(C(F)(F)F)cc3O)c3ccccc23)C1 [Compound I-29],1 to 10 nM
3,Oc1cc(C(F)(F)F)ccc1-c1nnc(CC2CCCNC2)c2ccccc12 (stereo not shown) [Compound I-30],10 to 100 nM
4,"Oc1cc(C(F)(F)F)ccc1-c1nnc(N[C@@H]2CCCNC2)c2c1CCCCC2 [Compound I-31, (R)-2-(4-(Piperidin-3-ylamino)-6,7,8,9-tetrahydro-5H-cyclohepta[d]pyridazin-1-yl)-5-(trifluoromethyl)phenol]",< 1 nM
5,Cc1nc(-c2ccc(-c3nnc(N[C@@H]4CCCNC4)c4ccccc34)c(O)c2)ns1 [Compound I-32],10 to 100 nM
6,CN1CCC[C@@H](Nc2nnc(-c3ccccc3O)c3ccccc23)C1 [Compound I-33],1 to 10 nM
7,CC(C)N1CCC[C@@H](Nc2nnc(-c3ccc(C(F)(F)F)cc3O)c3c2CCCC3)C1 [Compound I-34],< 1 nM
8,Oc1cc(C(F)(F)F)ccc1-c1nnc(N[C@@H]2CCCNC2)c2cnccc12 [Compound I-35],< 1 nM
9,"CN1CCC[C@@H](Nc2nnc(-c3ccc(C(F)(F)F)cc3O)c3c2CCCCC3)C1 [Compound I-36, (R)-2-(4-((1-Methylpiperidin-3-yl)amino)-6,7,8,9-tetrahydro-5H-cyclohepta[d]pyridazin-1-yl)-5-(trifluoromethyl)phenol]",< 1 nM
10,CN1CCC[C@@H](Nc2nnc(-c3ccc(-n4ccnn4)cc3O)c3ccccc23)C1 [Compound I-37],10 to 100 nM
11,Cc1nc(-c2ccc(-c3nnc(N[C@@H]4CCCN(C)C4)c4ccccc34)c(O)c2)ns1 [Compound I-38],< 1 nM
12,CN1CCC[C@@H](Nc2nnc(-c3ccc(-c4ccccc4)cc3O)c3ccccc23)C1 [Compound I-39],1 to 10 nM
13,CN1CCC[C@@H](Nc2nnc(-c3cc(-c4ccccc4)ccc3O)c3ccccc23)C1 [Compound I-40],100 to 300 nM
14,Cc1cc(O)c(-c2nnc(N[C@@H]3CCCN(C)C3)c3ccccc23)cc1C [Compound I-41],1 to 10 nM
15,Cc1ccc(-c2nnc(N[C@@H]3CCCN(C)C3)c3ccccc23)c(O)c1C [Compound I-42],< 1 nM
16,CCN1CCC[C@@H](Nc2nnc(-c3ccc(C(F)(F)F)cc3O)c3ccncc23)C1 [Compound I-43],< 1 nM
17,CN1CCCC(Cc2nnc(-c3ccc(C(F)(F)F)cc3O)c3ccccc23)C1 (stereo not shown) [Compound I-44],1 to 10 nM
18,CC1(C)CCc2c(N[C@@H]3CCCNC3)nnc(-c3ccc(C(F)(F)F)cc3O)c21 [Compound I-45],1 to 10 nM
19,CN1CCC[C@@H](Nc2nnc(-c3ccc(C(F)(F)F)cc3O)c3c2CCC3(C)C)C1 [Compound I-46],10 to 100 nM
20,"CN1CCC[C@@H](N(C)c2nnc(-c3ccc(C(F)(F)F)cc3O)c3c2CCCC3)C1 [Compound I-47, 2-[4-[Methyl-[(3R)-1-methyl-3-piperidyl]amino]-5,6,7,8-tetrahydrophthalazin-1-yl]-5-(trifluoromethyl)phenol]",< 1 nM
21,"OCCN1CCC[C@@H](Nc2nnc(-c3ccc(C(F)(F)F)cc3O)c3ccccc23)C1 [Compound I-48, 2-[4-[[(3R)-1-(2-Hydroxyethyl)-3-piperidyl]amino]phthalazin-1-yl]-5-(trifluoromethyl)phenol]",< 1 nM
22,CN1CCC[C@@H](Nc2nnc(-c3ccc(C4CC4)cc3O)c3ccccc23)C1 [Compound I-49],< 1 nM

row,Compound,IC50
1,Cc1cccc(O)c1-c1nnc(N[C@@H]2CCCN(C)C2)c2ccccc12 [Compound I-50],< 1 nM
2,Cc1ccc(-c2nnc(N[C@@H]3CCCN(C)C3)c3ccccc23)c(O)c1F [Compound I-51],< 1 nM
3,CN1CCC[C@@H](Nc2nnc(-c3ccc(C4=CCCOC4)cc3O)c3ccccc23)C1 [Compound I-52],1 to 10 nM
4,Oc1cc(C(F)(F)F)ccc1-c1nnc(N[C@H]2CNC[C@@H](O)C2)c2ccccc12 [Compound I-53],1 to 10 nM
5,CN1CCC[C@@H](Nc2nnc(-c3ccc(C(F)(F)F)cc3O)c3cnccc23)C1 [Compound I-54],< 1 nM
6,OCCN1CCC[C@@H](Nc2nnc(-c3ccc(C(F)(F)F)cc3O)c3ccncc23)C1 [Compound I-55],< 1 nM
7,CN1CCC[C@@H](Nc2nnc(-c3ccc(C4=CCOCC4)cc3O)c3ccccc23)C1 [Compound I-56],10 to 100 nM
8,CN1CCC[C@@H](Nc2nnc(-c3ccc(C4=CCOC4)cc3O)c3ccccc23)C1 [Compound I-57],1 to 10 nM
9,CN1CC=C(c2ccc(-c3nnc(N[C@@H]4CCCN(C)C4)c4ccccc34)c(O)c2)C1 [Compound I-58],1 to 10 nM
10,CN1CCC[C@@H](Nc2nnc(-c3ccc(Cl)cc3O)c3cnccc23)C1 [Compound I-59],< 1 nM
11,CN1CCC[C@@H](Nc2nnc(-c3ccc(Cl)cc3O)c3ccncc23)C1 [Compound I-60],< 1 nM
12,CN1CCC[C@@H](Nc2nnc(-c3ccc(C4CCOC4)cc3O)c3ccccc23)C1 (stereo partly shown) [Compound I-61],1 to 10 nM
13,"OCCN1CCC[C@@H](Nc2nnc(-c3ccc(C(F)(F)F)cc3O)c3c2CCCC3)C1 [Compound I-62, 2-[4-[[(3R)-1-(2-hydroxyethyl)-3-piperidyl]amino]-5,6,7,8-tetrahydrophthalazin-1-yl]-5-(trifluoromethyl)phenol]",< 1 nM
14,CN1C[C@@H](O)C[C@@H](Nc2nnc(-c3ccc(C(F)(F)F)cc3O)c3ccccc23)C1 [Compound I-63],1 to 10 nM
15,CC(=O)N1CCCC(Nc2nnc(-c3ccc(C(F)(F)F)cc3O)c3ccccc23)C1 (stereo not shown) [Compound I-64],10 to 100 nM
16,"CCOC(=O)CN1CCC[C@@H](Nc2nnc(-c3ccc(C(F)(F)F)cc3O)c3ccccc23)C1 [Compound I-65, Ethyl (R)-2-(3-((4-(2-hydroxy-4-(trifluoromethyl)phenyl)phthalazin-1-yl)amino)piperidin-1-yl)acetate]",< 1 nM
17,CN1CCC[C@@H](Nc2nnc(-c3ccc(Cl)cc3O)c3cccnc23)C1 [Compound I-67],< 1 nM
18,Oc1cc(C(F)(F)F)ccc1-c1nnc(NC[C@@H]2CCCN2)c2ccccc12 [Compound I-68],< 1 nM
19,"Cc1ccc(-c2nnc(N[C@@H]3CCCN(C)C3)c3cnccc23)c(O)c1 [Compound I-71, 5-Methyl-2-[4-[[(3R)-1-methyl-3-piperidyl]amino]pyrido[3,4-d]pyridazin-1-yl]phenol]",< 1 nM
20,CN1CCC[C@@H](Nc2nnc(-c3c(O)cccc3F)c3ccncc23)C1 [Compound I-72],1 to 10 nM
